Measured values reported in ChEMBL document CHEMBL1201862, “PubChem BioAssay data set” (2004).
Active and inactive are the calls of the source.

Columns and labels:
NADPH oxidase 1 = target: T1, NADPH oxidase 1 (Homo sapiens, UniProt Q9Y5S8); type: functional, cell-based;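 further: Cell-based assay with luminescence read-out, IC50 derived from inhibitor dose-response curves; intracellular ROS from endogenous NOX1 in intact HT29 colon cancer cells; potency of inhibitors that lower the ROS luminescence signal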
T1 sequence (Q9Y5S8 whole entry): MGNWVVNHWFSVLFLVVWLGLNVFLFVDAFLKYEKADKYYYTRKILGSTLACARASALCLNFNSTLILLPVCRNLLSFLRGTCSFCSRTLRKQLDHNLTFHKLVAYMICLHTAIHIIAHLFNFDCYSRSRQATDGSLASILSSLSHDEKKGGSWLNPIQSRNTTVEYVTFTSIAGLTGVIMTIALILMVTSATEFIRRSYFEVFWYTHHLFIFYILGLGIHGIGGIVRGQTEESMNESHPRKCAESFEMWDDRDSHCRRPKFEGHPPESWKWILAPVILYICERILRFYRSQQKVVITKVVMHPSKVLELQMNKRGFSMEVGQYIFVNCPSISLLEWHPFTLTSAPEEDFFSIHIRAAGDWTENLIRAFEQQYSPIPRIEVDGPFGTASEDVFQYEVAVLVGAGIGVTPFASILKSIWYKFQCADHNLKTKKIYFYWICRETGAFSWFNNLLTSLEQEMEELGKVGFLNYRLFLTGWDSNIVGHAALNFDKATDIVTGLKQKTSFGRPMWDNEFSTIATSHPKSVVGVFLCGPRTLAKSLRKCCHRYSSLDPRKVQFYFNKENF

Genome polyprotein = target: T2, Genome polyprotein (Hepatitis C virus, UniProt Q2Q167); assay: HCV core protein dimerization inhibitors, dose response, biochemical, TR-FRET (AID 2159); set-up: species or system Hepacivirus hominis;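 further: blocks dimerization of HCV core protein measured by TR-FRET between tagged core106 pairs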
T2 sequence (Q2Q167 whole entry): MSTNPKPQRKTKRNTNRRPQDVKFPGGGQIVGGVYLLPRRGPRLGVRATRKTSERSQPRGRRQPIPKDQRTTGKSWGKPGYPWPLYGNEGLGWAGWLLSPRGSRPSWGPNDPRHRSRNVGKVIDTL

Prothrombin = Prothrombin (Homo sapiens, UniProt P00734); assay: Thrombin 1536 HTS Dose Response Confirmation. [Related pubchem assays: 1046 (Thrombin 1536 HTS; hits were confirmed in this assay)]; type: functional
[1] = target: T3, Histone-lysine N-methyltransferase NSD2 (Homo sapiens, UniProt O96028); type: biochemical
T3 sequence (O96028 whole entry): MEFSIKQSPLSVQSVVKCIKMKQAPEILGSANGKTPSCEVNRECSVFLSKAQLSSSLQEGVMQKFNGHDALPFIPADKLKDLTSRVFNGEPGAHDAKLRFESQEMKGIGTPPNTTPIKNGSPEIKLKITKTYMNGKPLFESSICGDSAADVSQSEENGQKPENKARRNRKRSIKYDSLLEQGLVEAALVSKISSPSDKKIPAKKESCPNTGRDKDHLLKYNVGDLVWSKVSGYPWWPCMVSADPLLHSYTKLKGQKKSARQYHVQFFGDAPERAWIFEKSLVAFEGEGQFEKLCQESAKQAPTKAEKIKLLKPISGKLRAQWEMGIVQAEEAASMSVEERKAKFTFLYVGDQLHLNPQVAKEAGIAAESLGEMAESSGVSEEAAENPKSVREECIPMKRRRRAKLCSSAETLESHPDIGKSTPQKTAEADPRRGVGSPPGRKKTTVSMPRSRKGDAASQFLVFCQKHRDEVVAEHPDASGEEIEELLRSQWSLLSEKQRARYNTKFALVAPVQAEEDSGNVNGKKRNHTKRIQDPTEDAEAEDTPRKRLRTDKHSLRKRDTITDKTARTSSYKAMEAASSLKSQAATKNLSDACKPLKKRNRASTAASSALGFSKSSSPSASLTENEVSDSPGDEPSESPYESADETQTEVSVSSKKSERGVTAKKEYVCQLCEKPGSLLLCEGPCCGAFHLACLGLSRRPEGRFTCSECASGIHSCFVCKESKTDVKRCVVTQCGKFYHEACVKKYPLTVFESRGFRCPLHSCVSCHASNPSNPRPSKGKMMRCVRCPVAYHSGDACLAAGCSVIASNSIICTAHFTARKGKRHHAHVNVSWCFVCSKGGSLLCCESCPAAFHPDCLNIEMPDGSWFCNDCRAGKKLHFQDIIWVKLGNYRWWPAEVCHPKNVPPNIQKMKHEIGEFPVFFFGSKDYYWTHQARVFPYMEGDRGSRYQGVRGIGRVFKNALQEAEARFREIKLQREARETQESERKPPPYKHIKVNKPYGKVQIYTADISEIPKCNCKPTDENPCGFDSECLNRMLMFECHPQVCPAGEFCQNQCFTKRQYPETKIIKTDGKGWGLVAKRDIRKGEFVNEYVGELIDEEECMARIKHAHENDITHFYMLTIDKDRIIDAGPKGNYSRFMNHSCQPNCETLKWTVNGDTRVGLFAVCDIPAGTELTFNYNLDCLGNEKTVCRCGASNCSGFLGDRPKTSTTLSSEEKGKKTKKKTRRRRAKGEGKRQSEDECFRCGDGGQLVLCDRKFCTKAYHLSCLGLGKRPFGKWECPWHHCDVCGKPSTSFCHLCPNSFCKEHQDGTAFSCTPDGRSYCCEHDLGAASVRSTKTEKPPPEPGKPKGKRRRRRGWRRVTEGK

[2] = target: T4, Tyrosyl-DNA phosphodiesterase 2 (Homo sapiens, UniProt O95551); assay: human TDP2 enzyme inhibitors, dose response, biochemical, epi absorbance, IC50 (AID 743297)
T4 sequence (O95551 whole entry): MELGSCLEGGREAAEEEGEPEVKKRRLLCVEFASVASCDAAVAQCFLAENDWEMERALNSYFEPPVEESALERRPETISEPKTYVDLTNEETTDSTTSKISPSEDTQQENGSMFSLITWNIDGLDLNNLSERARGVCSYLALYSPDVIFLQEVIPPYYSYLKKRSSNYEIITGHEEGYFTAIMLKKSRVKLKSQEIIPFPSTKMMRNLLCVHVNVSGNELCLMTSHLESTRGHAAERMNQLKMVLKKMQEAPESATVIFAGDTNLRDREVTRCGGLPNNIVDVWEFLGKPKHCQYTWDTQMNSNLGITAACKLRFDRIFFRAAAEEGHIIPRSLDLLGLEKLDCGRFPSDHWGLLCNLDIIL

Caspase-6 = target: T5, Caspase-6 (Homo sapiens, UniProt P55212); assay: human caspase-6 inhibitors, dose response, biochemical, VEID-R110 fluorescence, cherry-pick (AID 720632)
T5 sequence (P55212 whole entry): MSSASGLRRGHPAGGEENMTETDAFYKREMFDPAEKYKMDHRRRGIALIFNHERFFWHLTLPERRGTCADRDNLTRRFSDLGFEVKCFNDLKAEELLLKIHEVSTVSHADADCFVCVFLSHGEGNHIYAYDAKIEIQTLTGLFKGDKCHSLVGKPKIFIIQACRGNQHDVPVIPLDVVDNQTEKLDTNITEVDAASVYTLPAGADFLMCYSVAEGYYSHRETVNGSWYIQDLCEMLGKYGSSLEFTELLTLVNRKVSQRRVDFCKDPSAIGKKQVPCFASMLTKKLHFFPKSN

[3] = Jurkat T cell cytotoxicity, dose response, cytotoxicity control for P. falciparum gametocyte viability project, luminescence (AID 1117277); type: functional, cell-based;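 further: potency reflects loss of cellular ATP meaning fewer viable cells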
[4] = P. falciparum late gametocyte killing, dose response, luminescence (AID 1117278); type: functional, cell-based;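 further: gametocytes exposed to compound for 24 hours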
INS1 = assay: beta cell apoptosis inhibitors, cytokine rescue, dose response, luminescence, retest (AID 449756); type: functional, cell-based; conditions: Rattus norvegicus;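 further: cell death triggered by IL-1 beta plus TNF-alpha plus IFN-gamma mixture; protective hits raise ATP signal compared with cytokine alone wells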
[5] = HeLa 2N DNA content increase, dose response, cell-based, IC50 (AID 1117349); type: functional
[6] = HeLa 4N DNA content increase, dose response, cell-based, IC50 (AID 1117351); type: functional
[7] = Concentration-dependent survival of SW480 colon cancer line, luminescence detection with CellTiter-Glo, half-maximal inhibitory concentration (AID 1117338); type: functional
[8] = SNU-C1 cell viability reduction, dose response, CellTiter-Glo luminescence (AID 1117323); type: functional, cell-based
[9] = cytotoxicity toward HCT116 cells – cell-based, CellTiter-Glo luminescence, IC50, dose response (AID 1117332); type: functional; conditions: HCT-116
[10] = RKO cell viability reduction, dose response, CellTiter-Glo luminescence (AID 1117322); type: functional
[11] = HCT116 cell viability decrease, GSK3B pretreatment – CellTiter-Glo, IC50, dose response (AID 1117339); type: functional; conditions: HCT-116
[12] = target: Heat shock protein HSP 90-alpha (Homo sapiens, UniProt P07900); type: functional, organism-based
[13] = CellTiter-Glo luminescent dose response of DLD-1 viability loss (AID 1117352); type: functional
Cytochrome P450 1A2 = target: T6, Cytochrome P450 1A2 (Homo sapiens, UniProt P05177);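 further: PubChem cytochrome P450 panel assay, CYP1A2 panel member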
T6 sequence (P05177 whole entry): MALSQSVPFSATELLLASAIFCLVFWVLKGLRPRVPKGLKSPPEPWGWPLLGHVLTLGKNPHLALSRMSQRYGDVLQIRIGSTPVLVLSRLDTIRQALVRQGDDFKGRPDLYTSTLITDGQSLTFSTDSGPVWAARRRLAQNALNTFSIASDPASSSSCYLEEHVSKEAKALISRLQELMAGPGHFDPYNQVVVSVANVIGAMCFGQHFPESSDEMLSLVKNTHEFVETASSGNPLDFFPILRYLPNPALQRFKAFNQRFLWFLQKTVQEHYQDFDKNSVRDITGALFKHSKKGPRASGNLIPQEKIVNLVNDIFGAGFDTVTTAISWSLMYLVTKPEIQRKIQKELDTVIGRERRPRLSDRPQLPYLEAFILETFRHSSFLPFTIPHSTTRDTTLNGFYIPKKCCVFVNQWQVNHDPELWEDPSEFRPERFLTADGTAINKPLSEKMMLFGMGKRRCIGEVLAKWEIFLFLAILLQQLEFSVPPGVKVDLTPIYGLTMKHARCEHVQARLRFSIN

[14] = cytotoxicity toward Colo320 cells – cell-based, CellTiter-Glo luminescence, IC50, dose response (AID 1117334); type: functional; conditions: COLO 320

For `O=C(Oc1ccc(Cl)cc1)c1sc2ccccc2c1Cl`, the IC50 (NADPH oxidase 1) was > 17 µM (not active).

For `COc1cccc(NC(=O)CN(C)C(=O)c2cc3c(s2)CCC3)c1`, the IC50 (Genome polyprotein) was > 49.8 µM (not active).

In the case of `O=C(/C=C/c1ccc(Br)o1)OCc1nc(O)c2sccc2n1`, the IC50 (Genome polyprotein) is reported as 18.2 µM (not active).

With `CC(=O)Nc1ccc(-c2nc(-c3ccccc3)c(-c3ccccc3)[nH]2)cc1` the IC50 (NADPH oxidase 1) was > 17 µM (not active).

In the case of `COc1ccc(-c2nc(-c3ccc(OC)cc3)c(-c3ccc(OC)cc3)[nH]2)cc1`, the IC50 (NADPH oxidase 1) is reported as > 17 µM (not active).

For `O=C(CSc1nc2ncnc-2c(O)[nH]1)NC1CCCCC1`, the IC50 (Prothrombin) was > 50 µM (not active).

With `COc1cc(N)c2ncccc2c1Br` the AC50 [1] was 13.1 µM (active), the IC50 [2] was > 128 µM (inactive) and the AC50 (Caspase-6) was 10 µM (active).

With `Cc1ccc(CN2CCN(Cc3ccc(-n4cccn4)cc3)CC2CCO)cc1` (stereo not drawn) the IC50 [3] was > 83.4 µM (inactive) and the IC50 [4] was > 109 µM (inactive).

In the case of `Cc1cc(C2CCCCC2)n(O)c(=O)c1` [CICLOPIROX OLAMINE], the AC50 (INS1) is reported as 0.78 µM (active), the IC50 [5] is reported as > 10 µM (inactive) and the IC50 [6] is reported as > 10 µM (inactive). The IC50 [7] was 0.469 µM (active), the IC50 [8] was > 20 µM (inactive) and the IC50 [9] was 0.656 µM (active). The IC50 [10] was 0.233 µM (active), the IC50 [11] was 0.39 µM (active) and the AC50 [12] was < 0.195 µM (active). For the same compound, the IC50 [13] was 0.316 µM (active), the AC50 (Cytochrome P450 1A2) was 15.8 µM (inconclusive) and the IC50 [14] was 0.208 µM (active).
